Experimental data published in patent US20130040944A1, “MGLUR4 ALLOSTERIC POTENTIATORS, COMPOSITIONS, AND METHODS OF TREATING NEUROLOGICAL DYSFUNCTION” (VANDERBILT UNIVERSITY, priority 2009, published 2013).

Target: human mGluR4 (Homo sapiens, UniProt Q14833)
Assay: potentiation of human mGluR4 in transfected CHO cells, Ca2+-sensitive dye fluorescence, EC20 agonist
Details: CHO, read-out: % Glu Max

human mGluR4, sequence (Q14833 33-912): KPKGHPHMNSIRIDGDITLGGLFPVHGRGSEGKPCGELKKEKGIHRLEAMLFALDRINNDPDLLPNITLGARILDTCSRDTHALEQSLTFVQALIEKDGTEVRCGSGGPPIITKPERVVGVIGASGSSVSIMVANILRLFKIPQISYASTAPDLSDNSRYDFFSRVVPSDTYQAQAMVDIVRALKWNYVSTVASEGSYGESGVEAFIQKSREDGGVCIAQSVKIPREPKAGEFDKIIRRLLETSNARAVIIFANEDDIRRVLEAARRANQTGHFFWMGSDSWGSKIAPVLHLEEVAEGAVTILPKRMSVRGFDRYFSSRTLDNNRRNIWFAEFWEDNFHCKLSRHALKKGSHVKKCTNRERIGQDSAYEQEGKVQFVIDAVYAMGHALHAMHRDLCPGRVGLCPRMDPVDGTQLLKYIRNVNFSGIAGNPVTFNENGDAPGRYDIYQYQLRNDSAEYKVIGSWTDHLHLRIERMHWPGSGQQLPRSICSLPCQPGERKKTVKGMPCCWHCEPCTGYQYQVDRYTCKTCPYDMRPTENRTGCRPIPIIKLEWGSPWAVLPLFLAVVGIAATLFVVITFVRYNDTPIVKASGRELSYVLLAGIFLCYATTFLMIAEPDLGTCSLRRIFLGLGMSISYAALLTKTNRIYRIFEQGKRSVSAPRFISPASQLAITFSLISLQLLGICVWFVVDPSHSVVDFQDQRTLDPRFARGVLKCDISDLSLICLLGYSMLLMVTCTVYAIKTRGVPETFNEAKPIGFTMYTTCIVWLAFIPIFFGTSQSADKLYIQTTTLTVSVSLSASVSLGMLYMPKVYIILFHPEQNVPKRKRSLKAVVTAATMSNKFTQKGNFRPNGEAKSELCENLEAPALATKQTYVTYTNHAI

Compound | Emax
O=C(Nc1ccn(S(=O)(=O)Cc2ccccc2)c1)c1cccc(F)n1 [Example 41, N-(1-(benzylsulfonyl)-1H-pyrrol-3-yl)-6-fluoropicolinamide] | 76%
O=C(Nc1ccn(S(=O)(=O)Cc2ccccc2)c1)c1ccco1 [Example 1, N-(1-(benzylsulfonyl)-1H-pyrrol-3-yl)furan-2-carboxamide] | 227%
O=C(Nc1ccn(S(=O)(=O)Cc2ccccc2)c1)c1cscn1 [Example 42, N-(1-(benzylsulfonyl)-1H-pyrrol-3-yl)thiazole-4-carboxamide] | 129%
O=C(Nc1ccn(S(=O)(=O)c2ccccc2)c1)c1ccccn1 [Example 4, N-(1-(phenylsulfonyl)-1H-pyrrol-3-yl)picolinamide] | 59%
O=C(Nc1ccn(S(=O)(=O)CCc2ccccc2)c1)c1ccccn1 [Example 40, N-(1-(phenethylsulfonyl)-1H-pyrrol-3-yl)picolinamide] | 152%
COc1cccc(C(=O)Nc2ccn(S(=O)(=O)Cc3ccccc3)c2)c1 [Example 3, N-(1-(benzylsulfonyl)-1H-pyrrol-3-yl)-3-methoxybenzamide] | 39%
Cc1cccc(C(=O)Nc2ccn(S(=O)(=O)Cc3ccccc3)c2)n1 [Example 43, N-(1-(benzylsulfonyl)-1H-pyrrol-3-yl)-6-methylpicolinamide] | 90%

Same assay, conditions: EC50 (nM), potentiation of EC20 agonist response; Table I

Compound | EC50
O=C(Nc1ccn(S(=O)(=O)Cc2ccccc2)c1)c1cccc(F)n1 [Example 41, N-(1-(benzylsulfonyl)-1H-pyrrol-3-yl)-6-fluoropicolinamide] | 574 nM
O=C(Nc1ccn(S(=O)(=O)Cc2ccccc2)c1)c1ccco1 [Example 1, N-(1-(benzylsulfonyl)-1H-pyrrol-3-yl)furan-2-carboxamide] | 6410 nM
O=C(Nc1ccn(S(=O)(=O)Cc2ccccc2)c1)c1cscn1 [Example 42, N-(1-(benzylsulfonyl)-1H-pyrrol-3-yl)thiazole-4-carboxamide] | 4620 nM
O=C(Nc1ccn(S(=O)(=O)c2ccccc2)c1)c1ccccn1 [Example 4, N-(1-(phenylsulfonyl)-1H-pyrrol-3-yl)picolinamide] | 280 nM
O=C(Nc1ccn(S(=O)(=O)CCc2ccccc2)c1)c1ccccn1 [Example 40, N-(1-(phenethylsulfonyl)-1H-pyrrol-3-yl)picolinamide] | 483 nM
COc1cccc(C(=O)Nc2ccn(S(=O)(=O)Cc3ccccc3)c2)c1 [Example 3, N-(1-(benzylsulfonyl)-1H-pyrrol-3-yl)-3-methoxybenzamide] | > 20000 nM
Cc1cccc(C(=O)Nc2ccn(S(=O)(=O)Cc3ccccc3)c2)n1 [Example 43, N-(1-(benzylsulfonyl)-1H-pyrrol-3-yl)-6-methylpicolinamide] | 9540 nM

Same assay, conditions: hEC50, human mGluR4 potentiation; unit inferred

Compound | EC50
Cn1cc(S(=O)(=O)n2ccc(NC(=O)c3ccccn3)c2)cn1 [Example 143, N-(1-((1-methyl-1H-pyrazol-4-yl)sulfonyl)-1H-pyrrol-3-yl)picolinamide] | 4790 nM
O=C1CCc2ccc(S(=O)(=O)n3ccc(NC(=O)c4ccccn4)c3)cc2N1 [Example 152, N-(1-((2-oxo-1,2,3,4-tetrahydroquinolin-7-yl)sulfonyl)-1H-pyrrol-3-yl)picolinamide] | 917 nM
Cc1c(Cl)cccc1S(=O)(=O)n1ccc(NC(=O)c2ccccn2)c1 [Example 116, N-(1-((3-chloro-2-methylphenyl)sulfonyl)-1H-pyrrol-3-yl)picolinamide] | 286 nM
O=C(Nc1ccn(S(=O)(=O)c2ccc(F)c(Cl)c2)c1)c1ccccn1 [Example 128, N-(1-((3-chloro-4-fluorophenyl)sulfonyl)-1H-pyrrol-3-yl)picolinamide] | 640 nM
O=C(Nc1ccn(S(=O)(=O)Cc2ccc(F)cc2Cl)c1)c1nccs1 [Example 60, N-(1-((2-chloro-4-fluorobenzyl)sulfonyl)-1H-pyrrol-3-yl)thiazole-2-carboxamide] | 132 nM
COc1ccccc1S(=O)(=O)n1ccc(NC(=O)c2ccccn2)c1 [Example 72, N-(1-((2-methoxyphenyl)sulfonyl)-1H-pyrrol-3-yl)picolinamide] | 2060 nM
CC(c1ccccc1Cl)S(=O)(=O)n1ccc(NC(=O)c2ccccn2)c1 (centres unmarked) [Example 106, N-(1-((1-(2-chlorophenyl)ethyl)sulfonyl)-1H-pyrrol-3-yl)picolinamide] | 1050 nM
O=C(O)c1ccc(S(=O)(=O)n2ccc(NC(=O)c3ccccn3)c2)cc1 [Example 155, 4-((3-(picolinamido)-1H-pyrrol-1-yl)sulfonyl)benzoic acid] | 6380 nM
O=C(Nc1ccn(S(=O)(=O)c2ccc(OC(F)F)cc2)c1)c1ccco1 [Example 163, N-(1-((4-(difluoromethoxy)phenyl)sulfonyl)-1H-pyrrol-3-yl)furan-2-carboxamide] | 3240 nM
COc1ccc(S(=O)(=O)n2ccc(NC(=O)c3ccccn3)c2)cc1Cl [Example 64, N-(1-((3-chloro-4-methoxyphenyl)sulfonyl)-1H-pyrrol-3-yl)picolinamide] | 664 nM
COc1ccc(S(=O)(=O)n2ccc(NC(=O)c3ccccn3)c2)cc1OC [Example 101, N-(1-((3,4-dimethoxyphenyl)sulfonyl)-1H-pyrrol-3-yl)picolinamide] | 5730 nM
O=C(Nc1ccn(S(=O)(=O)Cc2ccc(F)cc2F)c1)c1nccs1 [Example 55, N-(1-((2,4-difluorobenzyl)sulfonyl)-1H-pyrrol-3-yl)thiazole-2-carboxamide] | 1910 nM
O=C(Nc1ccn(S(=O)(=O)c2ccsc2)c1)c1ccccn1 [Example 132, N-(1-(thiophen-3-ylsulfonyl)-1H-pyrrol-3-yl)picolinamide] | 413 nM
O=C(Nc1ccn(S(=O)(=O)c2ccc3[nH]c(=O)sc3c2)c1)c1ccccn1 [Example 158, N-(1-((2-oxo-2,3-dihydrobenzo[d]thiazol-6-yl)sulfonyl)-1H-pyrrol-3-yl)picolinamide] | 550 nM
CC1(C)CCc2cc(S(=O)(=O)n3ccc(NC(=O)c4ccccn4)c3)ccc2O1 [Example 149, N-(1-((2,2-dimethylchroman-6-yl)sulfonyl)-1H-pyrrol-3-yl)picolinamide] | 351 nM
Cc1cc(S(=O)(=O)n2ccc(NC(=O)c3ccccn3)c2)c(F)cc1Cl [Example 113, N-(1-((4-chloro-2-fluoro-5-methylphenyl)sulfonyl)-1H-pyrrol-3-yl)picolinamide] | 346 nM
O=C(Nc1ccn(S(=O)(=O)c2ccc(Cl)cc2F)c1)c1ccccn1 [Example 138, N-(1-((4-chloro-2-fluorophenyl)sulfonyl)-1H-pyrrol-3-yl)picolinamide] | 243 nM
O=C(Nc1ccn(S(=O)(=O)Cc2ccccc2Cl)c1)c1ccc(Cl)cn1 [Example 86, 5-chloro-N-(1-((2-chlorobenzyl)sulfonyl)-1H-pyrrol-3-yl)picolinamide] | 7220 nM
Cc1ccc(C)c(S(=O)(=O)n2ccc(NC(=O)c3ccccn3)c2)c1 [Example 81, N-(1-((2,5-dimethylphenyl)sulfonyl)-1H-pyrrol-3-yl)picolinamide] | 228 nM
Cc1c(F)cccc1S(=O)(=O)n1ccc(NC(=O)c2ccccn2)c1 [Example 115, N-(1-((3-fluoro-2-methylphenyl)sulfonyl)-1H-pyrrol-3-yl)picolinamide] | 393 nM

Compound | EC50
O=C(Nc1ccn(S(=O)(=O)c2cccc(F)c2)c1)c1ccccn1 [Example 90, N-(1-((3-fluorophenyl)sulfonyl)-1H-pyrrol-3-yl)picolinamide] | 178 nM
Cc1ccc(S(=O)(=O)n2ccc(NC(=O)c3ccccn3)c2)s1 [Example 135, N-(1-((5-methylthiophen-2-yl)sulfonyl)-1H-pyrrol-3-yl)picolinamide] | 88.7 nM
O=C(Nc1ccn(S(=O)(=O)Cc2ccccc2Cl)c1)c1ncccc1F [Example 65, N-(1-((2-chlorobenzyl)sulfonyl)-1H-pyrrol-3-yl)-3-fluoropicolinamide] | 6970 nM
Cc1cccc(Cl)c1S(=O)(=O)n1ccc(NC(=O)c2ccccn2)c1 [Example 76, N-(1-((2-chloro-6-methylphenyl)sulfonyl)-1H-pyrrol-3-yl)picolinamide] | 988 nM
O=C(Nc1ccn(S(=O)(=O)c2ccco2)c1)c1ccccn1 [Example 123, N-(1-(furan-2-ylsulfonyl)-1H-pyrrol-3-yl)picolinamide] | 686 nM
O=C(Nc1ccn(S(=O)(=O)c2cc(F)c(F)cc2Cl)c1)c1ccccn1 [Example 107, N-(1-((2-chloro-4,5-difluorophenyl)sulfonyl)-1H-pyrrol-3-yl)picolinamide] | 158 nM
Cc1ccc(F)c(S(=O)(=O)n2ccc(NC(=O)c3ccccn3)c2)c1 [Example 89, N-(1-((2-fluoro-5-methylphenyl)sulfonyl)-1H-pyrrol-3-yl)picolinamide] | 281 nM
O=C(Nc1ccn(S(=O)(=O)c2ccc(CCl)cc2)c1)c1ccccn1 [Example 147, N-(1-((4-(chloromethyl)phenyl)sulfonyl)-1H-pyrrol-3-yl)picolinamide] | 225 nM
O=C(Nc1ccn(S(=O)(=O)Cc2cccc(F)c2)c1)c1ccco1 [Example 91, N-(1-((3-fluorobenzyl)sulfonyl)-1H-pyrrol-3-yl)furan-2-carboxamide] | 6760 nM
Cc1cccc(C)c1S(=O)(=O)n1ccc(NC(=O)c2ccco2)c1 [Example 67, N-(1-((2,6-dimethylphenyl)sulfonyl)-1H-pyrrol-3-yl)furan-2-carboxamide] | 6130 nM
COc1ccc(S(=O)(=O)n2ccc(NC(=O)c3ccccn3)c2)cn1 [Example 140, N-(1-((6-methoxypyridin-3-yl)sulfonyl)-1H-pyrrol-3-yl)picolinamide] | 116 nM
COc1ccc(S(=O)(=O)n2ccc(NC(=O)c3ccco3)c2)cc1 [Example 164, N-(1-((4-methoxyphenyl)sulfonyl)-1H-pyrrol-3-yl)furan-2-carboxamide] | 701 nM
O=C(Nc1ccn(S(=O)(=O)Cc2ccc(F)cc2Cl)c1)c1ccccn1 [Example 57, N-(1-((2-chloro-4-fluorobenzyl)sulfonyl)-1H-pyrrol-3-yl)picolinamide] | 125 nM
Cc1ccc(S(=O)(=O)n2cc(NC(=O)c3ccccn3)cc2C)cc1 [Example 151, N-(5-methyl-1-tosyl-1H-pyrrol-3-yl)picolinamide] | 3810 nM
O=C(Nc1ccn(S(=O)(=O)Cc2ccccc2)c1)c1nccs1 [Example 63, N-(1-(benzylsulfonyl)-1H-pyrrol-3-yl)thiazole-2-carboxamide] | 2760 nM
Cn1ccc(S(=O)(=O)n2ccc(NC(=O)c3ccccn3)c2)n1 [Example 159, N-(1-((1-methyl-1H-pyrazol-3-yl)sulfonyl)-1H-pyrrol-3-yl)picolinamide] | 931 nM
O=C(Nc1ccn(S(=O)(=O)c2cccs2)c1)c1ccccn1 [Example 134, N-(1-(thiophen-2-ylsulfonyl)-1H-pyrrol-3-yl)picolinamide] | 80 nM
O=C(Nc1ccn(S(=O)(=O)c2ccccn2)c1)c1ccccn1 [Example 160, N-(1-(pyridin-2-ylsulfonyl)-1H-pyrrol-3-yl)picolinamide] | 1490 nM
O=C(Nc1ccn(S(=O)(=O)c2ccc3c(c2)OCO3)c1)c1ccco1 [Example 166, N-(1-(benzo[d][1,3]dioxol-5-ylsulfonyl)-1H-pyrrol-3-yl)furan-2-carboxamide] | 1940 nM
